Data taken from US20250145637A1, “SULFONAMIDE DERIVATIVE, PREPARATION METHOD THEREFOR AND MEDICAL USE THEREOF” (Jiangsu Hengrui Pharmaceuticals Co. Ltd., priority 2021, published 2025).

Key:
[1] = molecular target: human KAT6A (Homo sapiens (Human), UniProt Q92794); assay: KAT6 enzyme activity assay (AlphaScreen method), KAT6A; assay type: biochemical; details: inhibition of the enzyme human KAT6A
From the text: Test Example 1: KAT6 Enzyme Activity Assay (AlphaScreen Method)
I. Reagents and instrument • 1. KAT6A (customized by Chempartner) • 2. Ovalbumin (Sigma-Aldrich, A5378-5G) • 3. 2 M Tris-HCl solution, pH 7.8, sterile (Sangon, B548140-0500) • 4. 5 M NaCl solution (Sangon, B548121-0100) • 5. EDTA (0.5 M), pH 8.0, RNase-free (Thermofisher, AM9260G) • 6. Tween-20 (Sangon, A100777-0500) • 7. DTT, 1 M (Invitrogen, P2325) • 8. Acetyl coenzyme A (Ac-CoA, CAYMAN, Cat. No. 16160) • 9. Recombinant histone H3.1 biotinylated (human) (Active Motif 31696) • 10. 384-well plate, light gray (Perkin Elmer, Cat. No. 6005350) • 11. Anacardic acid (MCE, Cat. No. HY—N2020) • 12. AlphaScreen streptavidin donor beads, 5 mg (PerkinElmer, 6760002) • 13. AlphaScreen protein A acceptor beads, 5 mg (PerkinElmer, 6760137M) • 14. Acetylated-lysine antibody #9441 (CST 9441S) • 15. PHERA star microplate reader (BMG labtech) • II. Experimental method
a. 1× assay buffer: 100 mM Tris-HCl, pH 7.8; 15 mM NaCl; 1 mM EDTA; 0.01% tween-20; 1 mM DTT; 0.01% m/v ovalbumin.
b. KAT enzyme solution: 1.25 nM (final concentration), prepared in 1× assay buffer.
c. Mixed substrate of Ac-CoA and H3: a mixed substrate of 1000 nM (final concentration) Ac-CoA and 55 nM (final concentration) H3, prepared in 1× assay buffer.
d. Compounds: initial concentration of 100 μM, 3-fold dilution, 10 gradient concentrations. All compound concentrations were diluted 83-fold with 1× assay buffer for later use.
e. Assay reagent: 8 ng/μL (final concentration) AlphaScreen protein A acceptor beads, 8 ng/μL AlphaScreen streptavidin donor beads, 1:1500 diluted acetylated-lysine antibody, and 100 μM anacardic acid; prepared in 1× assay buffer.
2. Experimental Procedure
a. The prepared enzyme solution was added to a 384-well plate at 3 μL/well, and 3 μL of 1× assay buffer was added to each well in columns 23 and 24 (Min).
b. 3 μL of compound solution was added to each well, and 3 μL of buffer was added to each Min well; 3 μL of DMSO solution was added to each well in columns 1 and 2 (Max) as controls. The plate was centrifuged, shaken for 2 min, and incubated at room temperature for 15 min.
c. The mixed substrate of Ac-CoA and H3 was added at 6 μL/well, and the plate was centrifuged, shaken for 2 min, and incubated at room temperature for 20 min.
d. The assay reagent was added at 6 μL/well, and the plate was centrifuged, shaken for 2 min, and incubated in the dark at room temperature for 120 min.
e. Plate reading was performed on the microplate reader, and AlphaScreen counts were recorded.
f. Plotting was performed using the Graphpad software, and the IC50 values of the compounds were calculated.

[2] = system: ZR-75-1; assay: ZR-75-1 proliferation assay (CellTiter-Glo, day 14); assay type: cell-based; details: Homo sapiens, 336 h, CTG assay day 14; for IC50: ZR-75-1 proliferation; for Emax: inhibition of ZR-75-1 proliferation, read-out: Maximum inhibition rate/Imax %
From the text: Test Example 4: ZR-75-1 Proliferation Assay
I. Reagents and Instruments
• 1. ZR-75-1 (ATCC CRL1500) • 2. 1640 medium (Gibco, 22400-089) • 3. 0.25% trypsin-EDTA (1×) (Gibco, 25200-072) • 4. Penicillin-streptomycin (Gibco, 15140-122) • 5. DPBS (1×) (Gibco, 14190-144) • 6. FBS (Gibco, 10091148) • 7. Assay plate, 96-well, black with clear bottom (Corning, 3603) • 8. 96-well non-treated round-bottom plate (JET BIOFIL, TCP-002-096) • 9. CellTiter-Glo buffer (Promega, G756B) • 10. CellTiter-Glo substrate (Promega, G755B) • 11. Automatic cell counter (Countstar, IC1000) • 12. Thermostatic incubator (Thermo, 1160) • 13. PHERAstar FS (BMG labtech, PHERAstar FS)
a. The state of cells was observed under a microscope to make sure that the cell confluence was about 90%.
b. The cell supernatant was discarded. The cells were rinsed with DPBS once, and the DPBS was removed. The cells were digested with a proper amount of trypsin and left to stand at 37° C. for 5 min.
c. The digestion was stopped with an equal volume of 1640 medium containing 10% FBS, and the cell suspension was collected and centrifuged at 300 g for 3 min. The cells were suspended in a proper amount of fresh medium.
d. The resulting cell suspension was collected and cell counting was performed.
e. The cell suspension was diluted to 5×10^4/mL, 50 μL/well with 1640 medium containing 10% FBS. Each well contained 2500 ZR-75-1 cells.
f. The cell culture plates were incubated overnight in a 37° C., 5% carbon dioxide incubator.
2. Compound Addition (Day 1)
a. Each compound was serially diluted in DMSO to 9 concentration points (initial concentration of 100 μM, 3-fold dilution; the highest concentration of each compound may be adjusted depending on its IC50). For example, in a 96-well non-treated round-bottom plate, 3 μL of compound was serially diluted in 6 μL of DMSO.
b. Each concentration point of each compound was diluted 500-fold in the corresponding volume of 1640 medium.
c. 50 μL of diluted compound solution was added to the cell supernatant (50 μL/well) in each cell plate.
d. After the addition, the cell plates were incubated in a 37° C., 5% carbon dioxide incubator.
3. The Cells were Re-Digested and Plated, and the Compounds were Added (Day 7).
a. Six days after the addition, the compound-containing medium was discarded. Then the cells were rinsed with DPBS (150 μL/well), and the DPBS was immediately pipetted off.
b. The cells were digested with 50 μL of trypsin and left to stand at 37° C. for 3 min, and then the digestion was stopped with 1640 medium containing 10% FBS (150 μL/well).
c. The cells were well mixed using a pipette and re-plated at a ratio of 1:8; that is, 25 μL of cell suspension was pipetted into a new 96-well plate (25 μL of 1640 medium containing 10% FBS had been added to the new plate in advance).
d. Compound solution preparation and addition (50 μL/well) were performed according to steps a to c in 2.
e. After the addition, the cell plates were incubated in a 37° C., 5% carbon dioxide incubator.
a. CellTiter-Glo buffer and lyophilized CellTiter-Glo substrate were equilibrated to room temperature before use and were well mixed to prepare a 100-mL CellTiter-Glo reagent (or a prepared CellTiter-Glo reagent was removed from a −20° C. freezer and equilibrated to room temperature).
b. The plates to be tested were removed from the incubator and equilibrated to room temperature, and the CellTiter-Glo reagent was added at 50 μL/well.
c. The plates were shaken for 2 min so that the cells were completely lysed.
d. After the plates were left to stand at room temperature for 28 min and signals were stable, the plates were tested on PHERAstar FS.

Chain of human KAT6A (Q92794 whole entry): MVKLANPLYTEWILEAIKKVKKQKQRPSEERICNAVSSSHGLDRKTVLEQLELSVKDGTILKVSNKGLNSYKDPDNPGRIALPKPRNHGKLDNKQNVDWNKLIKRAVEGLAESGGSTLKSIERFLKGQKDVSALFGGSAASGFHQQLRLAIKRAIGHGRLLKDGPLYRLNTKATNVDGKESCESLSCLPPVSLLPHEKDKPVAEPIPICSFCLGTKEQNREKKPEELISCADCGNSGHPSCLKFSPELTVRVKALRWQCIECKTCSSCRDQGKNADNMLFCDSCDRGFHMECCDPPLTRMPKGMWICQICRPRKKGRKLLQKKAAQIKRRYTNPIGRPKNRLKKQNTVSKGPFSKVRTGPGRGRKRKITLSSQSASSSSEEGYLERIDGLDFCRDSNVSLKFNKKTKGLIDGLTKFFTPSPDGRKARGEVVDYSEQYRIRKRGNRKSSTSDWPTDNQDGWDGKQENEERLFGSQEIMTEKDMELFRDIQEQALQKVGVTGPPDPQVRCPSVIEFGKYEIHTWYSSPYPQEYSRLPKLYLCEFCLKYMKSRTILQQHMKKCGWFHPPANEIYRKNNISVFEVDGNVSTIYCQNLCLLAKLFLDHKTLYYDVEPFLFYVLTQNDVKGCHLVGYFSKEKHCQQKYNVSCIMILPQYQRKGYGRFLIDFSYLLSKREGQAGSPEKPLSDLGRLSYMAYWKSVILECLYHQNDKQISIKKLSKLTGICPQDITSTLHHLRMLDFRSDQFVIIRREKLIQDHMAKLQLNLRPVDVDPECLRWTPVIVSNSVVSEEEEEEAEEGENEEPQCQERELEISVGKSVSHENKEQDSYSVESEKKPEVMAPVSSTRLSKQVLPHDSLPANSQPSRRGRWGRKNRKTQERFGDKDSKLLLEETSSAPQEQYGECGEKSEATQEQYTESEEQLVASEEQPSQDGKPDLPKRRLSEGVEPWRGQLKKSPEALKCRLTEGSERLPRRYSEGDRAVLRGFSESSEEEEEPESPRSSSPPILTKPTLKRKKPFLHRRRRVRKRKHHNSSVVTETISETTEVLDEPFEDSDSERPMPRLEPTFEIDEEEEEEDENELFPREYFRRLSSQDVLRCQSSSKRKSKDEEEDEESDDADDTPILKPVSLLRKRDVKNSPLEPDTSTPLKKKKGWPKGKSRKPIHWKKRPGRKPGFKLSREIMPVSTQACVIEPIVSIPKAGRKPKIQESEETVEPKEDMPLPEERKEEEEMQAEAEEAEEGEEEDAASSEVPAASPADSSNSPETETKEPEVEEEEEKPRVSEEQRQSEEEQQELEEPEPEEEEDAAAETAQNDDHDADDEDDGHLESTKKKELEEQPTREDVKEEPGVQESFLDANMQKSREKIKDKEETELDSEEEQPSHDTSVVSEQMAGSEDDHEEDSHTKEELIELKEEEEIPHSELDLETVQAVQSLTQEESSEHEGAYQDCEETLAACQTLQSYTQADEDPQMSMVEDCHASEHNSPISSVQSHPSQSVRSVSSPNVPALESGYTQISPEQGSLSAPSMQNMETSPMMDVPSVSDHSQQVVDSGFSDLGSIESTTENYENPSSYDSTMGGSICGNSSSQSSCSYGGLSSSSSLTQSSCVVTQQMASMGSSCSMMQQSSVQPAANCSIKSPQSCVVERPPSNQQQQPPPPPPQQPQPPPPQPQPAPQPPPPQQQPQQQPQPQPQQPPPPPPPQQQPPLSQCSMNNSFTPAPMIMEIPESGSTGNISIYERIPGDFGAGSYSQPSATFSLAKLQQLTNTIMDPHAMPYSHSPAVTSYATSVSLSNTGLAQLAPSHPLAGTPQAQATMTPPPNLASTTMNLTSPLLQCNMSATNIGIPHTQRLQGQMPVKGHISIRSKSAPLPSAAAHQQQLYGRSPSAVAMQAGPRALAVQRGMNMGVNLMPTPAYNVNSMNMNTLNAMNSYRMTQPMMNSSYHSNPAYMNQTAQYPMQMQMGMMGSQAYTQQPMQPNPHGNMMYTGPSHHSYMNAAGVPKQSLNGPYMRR

Compound | IC50 [1] [nM] | IC50 [2] [nM] | Emax [2] [%]
COc1cccc(OC)c1S(=O)(=O)Nc1noc2cc(Cn3cccn3)c3c(c12)OCC3 [Compound 1, N-(4-((1H-pyrazol-1-yl)methyl)-2,3-dihydrobenzofuro[7,6-d]isoxazol-8-yl)-2,6-dimethoxybenzenesulfonamide] | 0.6 | 1.4 | 96
COc1cccc(OC)c1S(=O)(=O)Nc1noc2cc(Cn3cccn3)c3c(c12)OCCC3 [Compound 2, N-(5-((1H-pyrazol-1-yl)methyl)-3,4-dihydro-2H-chromeno[8,7-d]isoxazol-9-yl)-2,6-dimethoxybenzenesulfonamide] |  | 0.4 | 96
COc1ccccc1S(=O)(=O)Nc1noc2cc(Cn3cccn3)c3c(c12)OCCC3 [Compound 3, N-(5-((1H-pyrazol-1-yl)methyl)-3,4-dihydro-2H-chromeno[8,7-d]isoxazol-9-yl)-2-methoxybenzenesulfonamide] | 0.5 | 1.9 | 95
COc1cccc(OC)c1S(=O)(=O)Nc1noc2cc(Cn3cccn3)c3c(c12)OC(F)(F)O3 [Compound 5, N-(4-((1H-pyrazol-1-yl)methyl)-2,2-difluoro-[1,3]dioxolo[4′,5′:5,6]benzo[1,2-d]isoxazol-8-yl)-2,6-dimethoxybenzenesulfonamide] | 1 | 0.9 | 98
CCOc1cc(C)ccc1S(=O)(=O)Nc1noc2cc(Cn3cccn3)c3c(c12)OCCC3 [Compound 7, N-(5-((1H-pyrazol-1-yl)methyl)-3,4-dihydro-2H-chromeno[8,7-d]isoxazol-9-yl)-2-ethoxy-4-methylbenzenesulfonamide] | 0.5 | 1.6 | 95.6
Cc1ccc(S(=O)(=O)Nc2noc3cc(Cn4cccn4)c4c(c23)OCCC4)c(OCC(F)(F)F)c1 [Compound 8, N-(5-((1H-pyrazol-1-yl)methyl)-3,4-dihydro-2H-chromeno[8,7-d]isoxazol-9-yl)-4-methyl-2-(2,2,2-trifluoroethoxy)benzenesulfonamide] | 0.7 | 2.6 | 96.3
COc1ccc(F)cc1S(=O)(=O)Nc1noc2cc(Cn3cccn3)c3c(c12)OCCC3 [Compound 9, N-(5-((1H-pyrazol-1-yl)methyl)-3,4-dihydro-2H-chromeno[8,7-d]isoxazol-9-yl)-5-fluoro-2-methoxybenzenesulfonamide] | 0.7 | 1.6 | 96.2
COc1cccc(OC(F)(F)F)c1S(=O)(=O)Nc1noc2cc(Cn3cccn3)c3c(c12)OCCC3 [Compound 10, N-(5-((1H-pyrazol-1-yl)methyl)-3,4-dihydro-2H-chromeno[8,7-d]isoxazol-9-yl)-2-methoxy-6-(trifluoromethoxy)benzenesulfonamide] | 0.9 | 2.95 | 94.1
COc1ccccc1S(=O)(=O)Nc1noc2cc(Cn3cccn3)c3c(c12)OCC3 [Compound 20, N-(4-((1H-pyrazol-1-yl)methyl)-2,3-dihydrobenzofuro[7,6-d]isoxazol-8-yl)-2-methoxybenzenesulfonamide] | 2.9 | 8.6 | 94.9
COc1cccc(OC(F)(F)F)c1S(=O)(=O)Nc1noc2cc(Cn3cccn3)c3c(c12)OCC3 [Compound 23, N-(4-((1H-pyrazol-1-yl)methyl)-2,3-dihydrobenzofuro[7,6-d]isoxazol-8-yl)-2-methoxy-6-(trifluoromethoxy)benzenesulfonamide] | 4.8 | 10.9 | 90.8
